Experimental data: patent US20240173325A1, “METHODS FOR TREATING SPINAL MUSCULAR ATROPHY” (Genentech, Inc., priority 2022, published 2024)
Where two headings read alike, the source gives them in different places.

Assays:
SMN protein = settings: cited from earlier work
neonatal subject = assay: Electrophysiological testing (CMAP, MUNE); format: in vivo, human
Protocol: The electrophysiological testing described in this Example can serve as a prognostic biomarker. See Pino (2021) Biomark. Insights. 16:11772719211035643. Electrophysiological studies were performed using standard technique on a Natus UltraPro S100 instrument, with Natus pre-gelled disposable surface electrodes (#901350242) and standard settings for motor nerve conduction studies (LFF 10 Hz and HFF […]). The right ulnar nerve was stimulated at the elbow and recorded from the abductor digiti minimi (ADM) and the peroneal (fibular) nerve was stimulated at the knee and recorded from the tibialis anterior (TA) muscle.
Electrophysiological measurements, such as the compound muscle action potential (CMAP) in millivolts (mV) and motor unit number estimation (MUNE), monitor the functional status of the motor unit pool and are particularly pertinent to motor neuron disorders. See Arnold (2014) Ann. Clin. Transl. Neurol. 1(1):34:44. Cross-sectional studies have shown that CMAP and MUNE correlate with other measures of motor function, clinical severity, and overall function. See Arnold (2014) Ann. Clin. Transl. Neurol. 1(1):34:44.
The CMAP response measures the output of the motor units supplying a particular muscle or group of muscles. The CMAP size is determined by the size and number of depolarized muscle fibers following supramaximal nerve stimulation. Three active electrode placements were used for each nerve tested and the maximal amplitude of the negative peak of the CMAP was used for analysis. As a reference study for the CMAP data provided in Table 6, an ongoing Phase 2, open-label study (NURTURE) aims to evaluate the safety and efficacy of nusinersen in preventing or profoundly attenuating the severity of SMA when initiated prior to the onset of symptoms. See De Vivo (2019) Neuromuscul. Disord. 29(11):842-856. In accordance with this reference study, CMAP amplitudes were mean (SD) 2.7 (1.5) and median (range) 2.3 (1.0-6.7) and NeuroNEXT (typically developing infants) was mean (SD) 5.5±2.0. See Kolb (2016) Ann. Clin. Transl. Neurol. 3(2):132-45.
MUNE is an electrophysiological method that can measure the number of motor units supplying a particular muscle. It should be appreciated that the “N” of MUNE (ulnar N) in Table 6 refers to “nerve.” For pre-symptomatic SMA neonates, MUNE (ulnar N) ranges from 70-270. See Bromberg (2002) Muscle Nerve. 25(3):445-7; and Swoboda (2005) Ann Neurol. 57(5):704-12. In this Example, the MUNE was performed on the right ulnar nerve using the multipoint technique. A minimum of ten unique single motor unit potentials were captured with the mean value used for the calculation of the MUNE. […] See Swoboda, et al. (2005) Ann. Neurol. 57:704-712; and Bromberg (2002) Muscle Nerve 25:445-447.

neurofilament = assay: Neurofilament light and phosphorylated heavy chain ELISA on plasma and serum; format: in vivo, human
Protocol: Neurofilament light and phosphorylated heavy chain assays were performed on plasma and serum samples using an ELISA assay, following the manufacturer's instructions (ProteinSimple, San Jose, CA, USA). Two runs were performed, each run having 3 aliquots run on the same plate and the mean value utilized. The average of the two runs was used for interpretation and in constructing FIG. 3 and FIG. 4.
The x-axis in FIG. 3 and FIG. 4 is associated with the date. The x-axis in FIG. 3 includes both prenatal dates (e.g., 32.5 WG or weeks gestation-37.6 WG) and postnatal dates or “PND” (e.g., d0-d43, referring to days post-birth of the fetal subject as the neonatal subject). The y- axis in FIG. 3 and FIG. 4 is associated with the mean neurofilament levels in blood (measured in pg/mL).
Further, in FIG. 3 and FIG. 4, “NF-L” refers to “neurofilament light chain,” which is a neuronal protein highly expressed in large caliber myelinated axons. NF-L levels increase in cerebrospinal fluid and blood proportionally to the degree of axonal damage in a variety of neurological disorders, including inflammatory, neurodegenerative, traumatic and cerebrovascular diseases. See Gaetani (2019) J. Neurol. Neurosurg. Psychiatry. 90(8):870-881. Additionally, “pNF-H” refers to the phosphorylated neurofilament heavy subunit (or phosphorylated NF-H). Further, as shown in FIG. 3 and FIG. 4, “Ser” refers to blood serum and “Pla” refers to blood plasma.

[1] = tested on: FMO1 and FMO3, CYPs 1A1, 2J2, 3A4, and 3A7; settings: cited from earlier work

For `Cc1cn2nc(-c3cc(=O)n4cc(N5CCNC6(CC6)C5)ccc4n3)cc(C)c2n1` [risdiplam, 7-(4,7-diazaspiro[2.5]octan-7-yl)-2-(2,8-dimethylimidazo[1,2-b]pyridazin-6-yl)-4H-pyrido[1,2-a]pyrimidin-4-one], the “SMN protein level in whole blood, reference values (median, range)” value (“SMN protein level in whole blood” below) (SMN protein; high dose 0.2 mg/kg/day, 4 W risdiplam) is listed as 5.9 (2.8-8.8) ng/mL, the “SMN protein level in whole blood” value (SMN protein; high dose 0.2 mg/kg/day, 12 M risdiplam) is listed as 5.7 (2.7-8.6) ng/mL and the “SMN protein level in whole blood” value (SMN protein; high dose 0.2 mg/kg/day, T0) is listed as “T0: 2.5 (1.1-6.4) ng/mL”. For the same compound, the “SMN protein level in whole blood” value (SMN protein; low dose 0.08 mg/kg/day, 4 W risdiplam) was 4.5 (2.6-5.6) ng/mL, the “SMN protein level in whole blood” value (SMN protein; low dose 0.08 mg/kg/day, 12 M risdiplam) was 3.0 (1.8-5.5) ng/mL and the “SMN protein level in whole blood” value (SMN protein; low dose 0.08 mg/kg/day, T0) was “T0: 1.3 (0.6-4.8) ng/mL”. The “MUNE (Ulnar N)” value (neonatal subject; 1 week) was 167, the “Peroneal N CMAP” value (neonatal subject; 1 week) was 2.7 mV and the “Ulnar N CMAP” value (neonatal subject; 1 week) was 4.6 mV. For the same compound, the “Ulnar nerve CMAP relative to NURTURE median 2.3 mV” value (neonatal subject; 1 week) was 2 fold, the “MUNE (Ulnar N)” value (neonatal subject; 6 weeks) was 313 and the “Peroneal N CMAP” value (neonatal subject; 6 weeks) was 3.5 mV. For the same compound, the “Ulnar N CMAP” value (neonatal subject; 6 weeks) was 5.8 mV, the “Ulnar nerve CMAP relative to NURTURE median 2.3 mV” value (neonatal subject; 6 weeks) was 2.5 fold and the “MUNE (Ulnar N)” value (neonatal subject; 18 weeks) was 296. For the same compound, the “Ulnar N CMAP” value (neonatal subject; 18 weeks) was 7.1 mV, the “pNF-H level in neonatal subject compared to the carrier” value (neurofilament; at delivery) was “about 10 fold” and the NF-L levels (neurofilament; carrier and neonatal subject, FIG. 3 and FIG. 4) was “low, with little change”. The “Increase of post-partum pNF-H levels” value (neurofilament; carrier, 6-week observation period) was “approximately 2 fold”, the “pNF-H level relative to lowest value in NURTURE study participants” value (neurofilament; neonatal subject) was 35% and the “pNF-H level relative to NURTURE median value (20881)” value (neurofilament; neonatal subject versus pre-symptomatic SMN2X2 infants under 6 weeks) was 1.4%. The pNF-H level (neurofilament; neonatal subject, data point of FIG. 4 correlated to FIG. 5) was 293 pg/mL, the Activity of metabolites [1] was “inactive” and the Metabolizing enzymes [1] was “primarily metabolized by flavin monooxygenase 1 and 3 (FMO1 and FMO3) and also by CYPs 1A1, 2J2, 3A4, and 3A7”.
